Laboratory results: US20220193013A1, “Pharmaceutical Composition for Treatment or Prevention of Multiple Inflammatory Disorders” (priority 2020, published 2022)

Tests used:
[1] = test system: mouse peritoneum macrophages; assay: LPS-stimulated mouse peritoneal macrophages, cytokine analysis; type: cell-based; details: for GM-CSF, Significance @ 12 hour LPS incubation / IFNγ, Significance @ 12 hour LPS incubation / IL-1α, Significance @ 12 hour LPS incubation / IL-1β, Significance @ 12 hour LPS incubation / IL-2, Significance @ 12 hour LPS incubation / IL-4, Significance @ 12 hour LPS incubation / IL-6, Significance @ 12 hour LPS incubation / IL-7, Significance @ 12 hour LPS incubation / IL-10, Significance @ 12 hour LPS incubation / IL-12 (p70), Significance @ 12 hour LPS incubation / IL-13, Significance @ 12 hour LPS incubation / IL-17A, Significance @ 12 hour LPS incubation / KC/CXCL1, Significance @ 12 hour LPS incubation / LIX, Significance @ 12 hour LPS incubation / MCP-1, Significance @ 12 hour LPS incubation / MIP-2, Significance @ 12 hour LPS incubation / TNF-α, Significance @ 12 hour LPS incubation: P value
Method: This example provides an […] study to determine the effect of DA on mouse peritoneum macrophages. Peritoneal exudates were obtained from Balb/c female mice by lavage 4 days after an intraperitoneal injection of 4 ml sterile 4% thioglycollate broth. After washing with RPMI 1640 medium, the cell suspensions were centrifuged at 800 g at 4° C. for 5 min. The red blood cells were eliminated by ACK buffer and the cells were washed and resuspended in RPMI 1640 supplemented with 10% inactivated FBS, 10 mM HEPES, 2 mM glutamine, and 100 U/ml penicillin-[…] streptomycin. The peritoneal macrophages were plated in 24 well tissue culture plate (2×10^5 cells/mL/well) at 37° C. in a 5% CO2 humidified atmosphere. Macrophages were precultured in serum-free RPMI 1640 medium for 24 h to reduce mitogenic effects. Macrophages were pretreated with various concentrations of DA for 1 h prior to LPS treatment and stimulated with LPS (100 ng/mL) for 24 h. Treatment groups were: Table 4 At 12 and 24 h time points of stimulation, ˜200 ul of supernatant were removed and stored (−80° C.) for cytokine analysis ([…]). Cytokines analyzed were—GM-CSF, IFNγ, IL-1a, IL-1β, IL-2, IL-4, IL-5, IL-6, IL-7, IL-10, IL-12 (p70), IL-13, IL-17A, KC/CXCL1, LIX, MCP-1, MIP-2, TNF-α,

[2] = test system: DIO mice (C57BL/6NTac, high fat diet); assay: body weight study in diet-induced obese (DIO) mice, 56 days; type: in vivo, mouse
Method: This example provides results of a study of DA plus another compound (CQL) on body weight in diet-induced (DIO) mice. Adult C57BL/6NTac mice were fed with a high fat diet (60%). Vehicle group (N=15) were treated with distilled water by gavage BID, CQL (N=15) were treated at 50 mg/kg by gavage BID, and DA (N=15) at a dose of 92.4 mg/kg by gavage BID. The study period was for 56 days+2-3 days testing period afterward. […] Metabolic biomarkers were measured on days 28 and 56. Cytokine analysis on Days 28 and 56. Serum levels of GLP-1, GLP-2, and CCK at 1 h after dosing on Days 1 and 56, and at 2 h after dosing on Day 7 (dosing (>6 h fasting prior to dosing until after blood collection); and serum level of PPY on Day 56.

[3] = DA 92.4 mg/kg gavage BID, compared to vehicle
[4] = DA 92.4 mg/kg, CQL 50 mg/kg, gavage BID

**Q.** Which results are given for `CC(=O)[O-].CC[N+](CC)(CC(=O)Nc1c(C)cccc1C)Cc1ccccc1` [DA, denatonium acetate]?
**A.** GM-CSF, Significance @ 24 hour LPS incubation ([1]; DA 1 μM): No sig; IFNγ, Significance @ 24 hour LPS incubation ([1]; DA 1 μM): No sig; IL-1α, Significance @ 24 hour LPS incubation ([1]; DA 1 μM): No sig; IL-1β, Significance @ 24 hour LPS incubation ([1]; DA 1 μM): No sig; IL-2, Significance @ 24 hour LPS incubation ([1]; DA 1 μM): No sig; IL-4, Significance @ 24 hour LPS incubation ([1]; DA 1 μM): No sig; IL-6, Significance @ 24 hour LPS incubation ([1]; DA 1 μM): No sig; IL-7, Significance @ 24 hour LPS incubation ([1]; DA 1 μM): No sig; IL-10, Significance @ 24 hour LPS incubation ([1]; DA 1 μM): No sig; IL-12 (p70), Significance @ 24 hour LPS incubation ([1]; DA 1 μM): No sig; IL-13, Significance @ 24 hour LPS incubation ([1]; DA 1 μM): No sig; IL-17A, Significance @ 24 hour LPS incubation ([1]; DA 1 μM): No sig; KC/CXCL1, Significance @ 24 hour LPS incubation ([1]; DA 1 μM): No sig; LIX, Significance @ 24 hour LPS incubation ([1]; DA 1 μM): No sig; MCP-1, Significance @ 24 hour LPS incubation ([1]; DA 1 μM): No sig; MIP-2, Significance @ 24 hour LPS incubation ([1]; DA 1 μM): No sig; TNF-α, Significance @ 24 hour LPS incubation ([1]; DA 1 μM): No sig; GM-CSF, Significance @ 12 hour LPS incubation ([1]; DA 1 μM): 0.029; IFNγ, Significance @ 12 hour LPS incubation ([1]; DA 1 μM): 0.031; IL-1α, Significance @ 12 hour LPS incubation ([1]; DA 1 μM): 0.021; IL-1β, Significance @ 12 hour LPS incubation ([1]; DA 1 μM): 0.023; IL-2, Significance @ 12 hour LPS incubation ([1]; DA 1 μM): 0.005; IL-4, Significance @ 12 hour LPS incubation ([1]; DA 1 μM): 0.009; IL-6, Significance @ 12 hour LPS incubation ([1]; DA 1 μM): 0.096; IL-7, Significance @ 12 hour LPS incubation ([1]; DA 1 μM): 0.024; IL-10, Significance @ 12 hour LPS incubation ([1]; DA 1 μM): 0.045; IL-12 (p70), Significance @ 12 hour LPS incubation ([1]; DA 1 μM): 0.017; IL-13, Significance @ 12 hour LPS incubation ([1]; DA 1 μM): 0.038; IL-17A, Significance @ 12 hour LPS incubation ([1]; DA 1 μM): 0.044; KC/CXCL1, Significance @ 12 hour LPS incubation ([1]; DA 1 μM): No sig; LIX, Significance @ 12 hour LPS incubation ([1]; DA 1 μM): No sig; MCP-1, Significance @ 12 hour LPS incubation ([1]; DA 1 μM): No sig; MIP-2, Significance @ 12 hour LPS incubation ([1]; DA 1 μM): 0.081; TNF-α, Significance @ 12 hour LPS incubation ([1]; DA 1 μM): 0.059; GM-CSF, Significance @ 24 hour LPS incubation ([1]; DA 10 μM): no sig; IFNγ, Significance @ 24 hour LPS incubation ([1]; DA 10 μM): no sig; IL-1α, Significance @ 24 hour LPS incubation ([1]; DA 10 μM): no sig; IL-1β, Significance @ 24 hour LPS incubation ([1]; DA 10 μM): no sig; IL-2, Significance @ 24 hour LPS incubation ([1]; DA 10 μM): no sig; IL-4, Significance @ 24 hour LPS incubation ([1]; DA 10 μM): no sig; IL-6, Significance @ 24 hour LPS incubation ([1]; DA 10 μM): no sig; IL-7, Significance @ 24 hour LPS incubation ([1]; DA 10 μM): no sig; IL-10, Significance @ 24 hour LPS incubation ([1]; DA 10 μM): no sig; IL-12 (p70), Significance @ 24 hour LPS incubation ([1]; DA 10 μM): no sig; IL-13, Significance @ 24 hour LPS incubation ([1]; DA 10 μM): no sig; IL-17A, Significance @ 24 hour LPS incubation ([1]; DA 10 μM): no sig; KC/CXCL1, Significance @ 24 hour LPS incubation ([1]; DA 10 μM): no sig; LIX, Significance @ 24 hour LPS incubation ([1]; DA 10 μM): no sig; MCP-1, Significance @ 24 hour LPS incubation ([1]; DA 10 μM): no sig; MIP-2, Significance @ 24 hour LPS incubation ([1]; DA 10 μM): no sig; TNF-α, Significance @ 24 hour LPS incubation ([1]; DA 10 μM): no sig; GM-CSF, Significance @ 12 hour LPS incubation ([1]; DA 10 μM): no sig; IFNγ, Significance @ 12 hour LPS incubation ([1]; DA 10 μM): 0.037; IL-1α, Significance @ 12 hour LPS incubation ([1]; DA 10 μM): 0.036; IL-1β, Significance @ 12 hour LPS incubation ([1]; DA 10 μM): 0.023; IL-2, Significance @ 12 hour LPS incubation ([1]; DA 10 μM): 0.004; IL-4, Significance @ 12 hour LPS incubation ([1]; DA 10 μM): 0.009; IL-6, Significance @ 12 hour LPS incubation ([1]; DA 10 μM): 0.029; IL-7, Significance @ 12 hour LPS incubation ([1]; DA 10 μM): 0.010; IL-10, Significance @ 12 hour LPS incubation ([1]; DA 10 μM): 0.026; IL-12 (p70), Significance @ 12 hour LPS incubation ([1]; DA 10 μM): 0.007; IL-13, Significance @ 12 hour LPS incubation ([1]; DA 10 μM): 0.019; IL-17A, Significance @ 12 hour LPS incubation ([1]; DA 10 μM): 0.024; KC/CXCL1, Significance @ 12 hour LPS incubation ([1]; DA 10 μM): no sig; LIX, Significance @ 12 hour LPS incubation ([1]; DA 10 μM): no sig; MCP-1, Significance @ 12 hour LPS incubation ([1]; DA 10 μM): no sig; MIP-2, Significance @ 12 hour LPS incubation ([1]; DA 10 μM): 0.021; TNF-α, Significance @ 12 hour LPS incubation ([1]; DA 10 μM): 0.024; GM-CSF, Significance @ 24 hour LPS incubation ([1]; DA 100 μM): no sig; IFNγ, Significance @ 24 hour LPS incubation ([1]; DA 100 μM): no sig; IL-1α, Significance @ 24 hour LPS incubation ([1]; DA 100 μM): no sig; IL-1β, Significance @ 24 hour LPS incubation ([1]; DA 100 μM): no sig; IL-2, Significance @ 24 hour LPS incubation ([1]; DA 100 μM): no sig; IL-4, Significance @ 24 hour LPS incubation ([1]; DA 100 μM): no sig; IL-6, Significance @ 24 hour LPS incubation ([1]; DA 100 μM): no sig; IL-7, Significance @ 24 hour LPS incubation ([1]; DA 100 μM): no sig; IL-10, Significance @ 24 hour LPS incubation ([1]; DA 100 μM): no sig; IL-12 (p70), Significance @ 24 hour LPS incubation ([1]; DA 100 μM): no sig; IL-13, Significance @ 24 hour LPS incubation ([1]; DA 100 μM): no sig; IL-17A, Significance @ 24 hour LPS incubation ([1]; DA 100 μM): no sig; KC/CXCL1, Significance @ 24 hour LPS incubation ([1]; DA 100 μM): no sig; LIX, Significance @ 24 hour LPS incubation ([1]; DA 100 μM): no sig; MCP-1, Significance @ 24 hour LPS incubation ([1]; DA 100 μM): no sig; MIP-2, Significance @ 24 hour LPS incubation ([1]; DA 100 μM): no sig; TNF-α, Significance @ 24 hour LPS incubation ([1]; DA 100 μM): no sig; GM-CSF, Significance @ 12 hour LPS incubation ([1]; DA 100 μM): no sig; IL-10, Significance @ 12 hour LPS incubation ([1]; DA 100 μM): 0.015; IL-12 (p70), Significance @ 12 hour LPS incubation ([1]; DA 100 μM): 0.008; IL-13, Significance @ 12 hour LPS incubation ([1]; DA 100 μM): 0.021; IL-17A, Significance @ 12 hour LPS incubation ([1]; DA 100 μM): 0.042; KC/CXCL1, Significance @ 12 hour LPS incubation ([1]; DA 100 μM): 0.022; LIX, Significance @ 12 hour LPS incubation ([1]; DA 100 μM): no sig; MCP-1, Significance @ 12 hour LPS incubation ([1]; DA 100 μM): no sig; MIP-2, Significance @ 12 hour LPS incubation ([1]; DA 100 μM): 0.033; TNF-α, Significance @ 12 hour LPS incubation ([1]; DA 100 μM): 0.033; serum glucose levels ([2]; DA 92.4 mg/kg gavage BID): did not show a significant effect; daily food intake at Day 14 [2, 3]: significantly reduced; serum CCK levels at Day 56 [2, 3]: significantly increased; serum GLP-1 levels at Days 7 and 56 [2, 3]: significantly increased; serum GLP-2 levels at Day 56 [2, 3]: significantly increased; serum PYY levels at Day 56 [2, 3]: significantly increased; serum insulin level at Day 28 [2, 3]: significantly reduced; body weight gain at day 57 ([2]; DA 92.4 mg/kg gavage BID, compared to vehicle and CQL): significantly reduced; serum LDL levels at days 28 and 56 ([2]; DA 92.4 mg/kg gavage BID, compared to vehicle, no significant difference): noticeable decrease; serum HbA1c level at Day 28 [2, 4]: significantly reduced; serum HbA1c level at Day 56 [2, 4]: considerably increased; daily water intake at Day 28 ([2]; DA 92.4 mg/kg, CQL 50 mg/kg, gavage BID, compared to vehicle): significantly increased; serum Eotaxin, significance (p) of increase ([2]; day 28): 0.031; serum G-CSR, significance (p) of increase ([2]; day 28): 0.063; serum IL-6, significance (p) of increase ([2]; day 28): 0.041; serum IP-10, significance (p) of increase ([2]; day 28): 0.013; serum MIG, significance (p) of increase ([2]; day 28): no sig; serum Eotaxin, significance (p) of increase ([2]; day 56): no sig; serum G-CSR, significance (p) of increase ([2]; day 56): 0.039; serum IL-6, significance (p) of increase ([2]; day 56): no sig; serum IP-10, significance (p) of increase ([2]; day 56): no sig; serum MIG, significance (p) of increase ([2]; day 56): 0.028
